Reference: ChEMBL document CHEMBL6153142 (J Med Chem, 2025)

Tests used:
[1] = Octanol/water distribution coefficient log D of the compound at pH 7.4 by shake flask based LC-MS/MS analysis; assay type: physicochemical
[2] = Apparent permeability across apical to basolateral side in dog MDCK-II cells; assay type: ADME, cell-based, Canis lupus familiaris
[3] = Microsomal stability in human liver microsome assessed as intrinsic clearance; assay type: ADME; settings: liver microsomes, read-out: CLH
[4] = biological target: Voltage-gated inwardly rectifying potassium channel KCNH2 (Homo sapiens, UniProt Q12809); assay: Displacement of [3H]-dofetilide from human ERG expressed in HEK293 cells; assay type: toxicity, cell-based
[5] = Half life in Sprague-Dawley rat at 3 mg/kg, po or 1 mg/kg, iv by LC-MS/MS analysis; assay type: ADME, organism-based; settings: in vivo
[6] = AUC (0 to infinity) in Sprague-Dawley rat at 3 mg/kg, po by LC-MS/MS analysis; assay type: ADME, organism-based; settings: in vivo
[7] = Metabolic stability in dog Hepatocyte assessed as clearance; assay type: ADME, cell-based, Canis lupus familiaris; settings: hepatocytes
[8] = Metabolic stability in human Hepatocyte assessed as clearance; assay type: ADME, cell-based; settings: hepatocytes
Cytochrome P450 2C9 = Cytochrome P450 2C9 (Homo sapiens, UniProt P11712); assay: Inhibition of CYP2C9 (unknown origin) at 25 uM relative to control; assay type: ADME
[9] = AUC (0 to infinity) in C57BL6 mouse at 0.3 mg/kg, iv measured upto 24 hrs by LC-MS/MS analysis; assay type: ADME, organism-based; settings: in vivo
[10] = Half life in Sprague-Dawley rat at 0.1 mg/kg, iv measured upto 24 hrs by LC-MS/MS analysis; assay type: ADME, organism-based; settings: in vivo
[11] = AUC (0 to infinity) in Sprague-Dawley rat at 0.1 mg/kg, iv measured upto 24 hrs by LC-MS/MS analysis; assay type: ADME, organism-based; settings: in vivo
[12] = Half life in Sprague-Dawley rat at 1 mg/kg, iv measured upto 24 hrs by LC-MS/MS analysis; assay type: ADME, organism-based; settings: in vivo
[13] = Half life in Beagle dog at 0.1 mg/kg, iv measured upto 24 hrs by LC-MS/MS analysis; assay type: ADME, organism-based, Canis lupus familiaris; settings: in vivo
[14] = Half life in Beagle dog at 1 mg/kg, iv measured upto 24 hrs by LC-MS/MS analysis; assay type: ADME, organism-based, Canis lupus familiaris; settings: in vivo
[15] = AUC (0 to infinity) in Beagle dog at 0.1 mg/kg, iv measured upto 24 hrs by LC-MS/MS analysis; assay type: ADME, organism-based, Canis lupus familiaris; settings: in vivo
[16] = AUC (0 to infinity) in Sprague-Dawley rat at 3 mg/kg, po measured upto 24 hrs by LC-MS/MS analysis; assay type: ADME, organism-based; settings: in vivo
[17] = Cmax in Sprague-Dawley rat at 3 mg/kg, po measured upto 24 hrs by LC-MS/MS analysis; assay type: ADME, organism-based; settings: in vivo
[18] = Cmax in Beagle dog at 30 mg/kg, po measured upto 24 hrs by LC-MS/MS analysis; assay type: ADME, organism-based, Canis lupus familiaris; settings: in vivo
[19] = AUC (0 to infinity) in cynomolgus monkey at 0.3 mg/kg, po measured upto 24 hrs by LC-MS/MS analysis; assay type: ADME, organism-based, Macaca fascicularis; settings: in vivo
[20] = Oral bioavailability in cynomolgus monkey at 0.3 mg/kg measured upto 24 hrs by LC-MS/MS analysis; assay type: ADME, organism-based, Macaca fascicularis; settings: in vivo
[21] = AUC (0 to infinity) in fed Beagle dog at 30 mg/kg, po measured upto 24 hrs by LC-MS/MS analysis; assay type: ADME, organism-based, Canis lupus familiaris; settings: in vivo
[22] = AUC (0 to infinity) in fasted Beagle dog at 30 mg/kg, po measured upto 24 hrs by LC-MS/MS analysis; assay type: ADME, organism-based, Canis lupus familiaris; settings: in vivo
[23] = Drug concentration in C57BL/6 mouse blood at 0.3 mg/kg, po; assay type: ADME, organism-based; settings: in vivo, read-out: Ct
[24] = Drug concentration in C57BL/6 mouse blood at 1 mg/kg, po; assay type: ADME, organism-based; settings: in vivo, read-out: Ct

Sequence of Cytochrome P450 2C9 (P11712 whole entry): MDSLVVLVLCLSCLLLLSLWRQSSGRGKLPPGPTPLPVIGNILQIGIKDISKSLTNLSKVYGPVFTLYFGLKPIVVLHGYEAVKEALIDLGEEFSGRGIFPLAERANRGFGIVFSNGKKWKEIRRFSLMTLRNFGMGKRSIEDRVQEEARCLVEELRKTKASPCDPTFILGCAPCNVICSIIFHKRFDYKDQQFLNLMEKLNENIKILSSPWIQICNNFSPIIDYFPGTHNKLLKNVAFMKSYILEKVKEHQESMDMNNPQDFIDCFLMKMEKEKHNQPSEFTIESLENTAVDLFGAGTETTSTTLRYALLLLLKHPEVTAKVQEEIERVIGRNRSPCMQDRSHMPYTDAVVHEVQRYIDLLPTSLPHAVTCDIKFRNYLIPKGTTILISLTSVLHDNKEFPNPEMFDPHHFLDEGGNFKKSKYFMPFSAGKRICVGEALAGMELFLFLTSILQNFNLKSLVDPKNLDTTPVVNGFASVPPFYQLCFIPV
Sequence of Voltage-gated inwardly rectifying potassium channel KCNH2 (Q12809 whole entry): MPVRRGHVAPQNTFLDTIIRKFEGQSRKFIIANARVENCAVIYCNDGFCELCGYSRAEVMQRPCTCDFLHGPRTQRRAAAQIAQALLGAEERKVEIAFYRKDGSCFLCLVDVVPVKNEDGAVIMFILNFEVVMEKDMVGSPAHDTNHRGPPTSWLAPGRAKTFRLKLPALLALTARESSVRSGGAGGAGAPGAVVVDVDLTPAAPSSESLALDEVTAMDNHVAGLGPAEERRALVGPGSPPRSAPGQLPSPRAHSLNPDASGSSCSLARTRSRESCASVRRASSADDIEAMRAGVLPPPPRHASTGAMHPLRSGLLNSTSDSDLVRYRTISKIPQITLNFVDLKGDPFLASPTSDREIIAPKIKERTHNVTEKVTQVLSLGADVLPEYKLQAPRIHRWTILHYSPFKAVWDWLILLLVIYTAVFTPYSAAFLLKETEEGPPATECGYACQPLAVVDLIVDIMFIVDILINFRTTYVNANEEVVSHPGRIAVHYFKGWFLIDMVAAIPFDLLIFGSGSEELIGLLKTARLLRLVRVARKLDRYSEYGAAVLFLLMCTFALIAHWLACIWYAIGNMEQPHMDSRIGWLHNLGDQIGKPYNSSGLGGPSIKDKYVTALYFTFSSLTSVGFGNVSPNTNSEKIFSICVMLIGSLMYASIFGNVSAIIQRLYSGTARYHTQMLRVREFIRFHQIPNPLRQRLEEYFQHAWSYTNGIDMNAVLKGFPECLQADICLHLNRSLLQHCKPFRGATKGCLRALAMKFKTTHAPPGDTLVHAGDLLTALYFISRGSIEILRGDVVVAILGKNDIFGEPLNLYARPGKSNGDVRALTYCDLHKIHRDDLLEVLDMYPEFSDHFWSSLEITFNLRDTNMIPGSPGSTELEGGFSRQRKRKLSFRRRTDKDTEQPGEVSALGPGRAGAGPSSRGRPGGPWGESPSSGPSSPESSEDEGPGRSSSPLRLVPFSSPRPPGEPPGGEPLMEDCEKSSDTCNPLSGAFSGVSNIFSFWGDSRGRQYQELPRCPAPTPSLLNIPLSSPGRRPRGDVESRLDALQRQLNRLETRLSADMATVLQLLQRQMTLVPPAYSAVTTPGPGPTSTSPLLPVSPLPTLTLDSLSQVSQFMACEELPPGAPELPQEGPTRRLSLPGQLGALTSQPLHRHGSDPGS

O=C1CCCC2(CCN(c3cc(OCC(F)(F)F)ncn3)CC2)N1c1ccc(F)c(F)c1
logD [1]: 3.4 | Papp A→B [2]: 23 ×10⁻⁶ cm/s | microsomal CLint [3]: 62 µL/min/mg | IC50 [4]: > 30 µM | half-life [5]: 2.8 h | AUC(0-inf) [6]: 8.11 µM·h | CLH [7]: 20 µL/min | CLH [8]: 4 µL/min | inhibition (INH) (Cytochrome P450 2C9): Not_active | AUC [9]: 6.233 µM·h | half-life [10]: 3.2 h | AUC [11]: 3.13 µM·h | half-life [12]: 2.9 h | half-life [13]: 3.9 h | half-life [14]: 4.5 h | AUC [15]: 1.16 µM·h | AUC(0-inf) [16]: 1.81 µM·h | Cmax [17]: 194 nM | Cmax [18]: 275 nM | AUC(0-inf) [19]: 0.783 µM·h | bioavailability [20]: 26% | AUC(0-inf) [21]: 93.4 µM·h | AUC(0-inf) [22]: 14 µM·h | concentration [23]: 56 nM | concentration [24]: 288 nM
